In US7368440B2, “Methods for the administration of amifostine and related compounds” (Medimmune Oncology, Inc., priority 2001, dated 2008):
Read-outs that look alike come from different tables or passages of the source.

Settings: human, in vivo
Method: The reconstituted solution was drawn up in a 10 mL syringe for administration.
This solution was divided into two syringes (1.25 mL per syringe) for administration.
During the infusion, the subjects were kept in a supine position. […] Moreover, all subjects were given a standard lunch at noon, a standard dinner at 6:00 PM and a standard snack at 10:00 PM.
This formulation was administered by gently squirting the solution in the back of the subject's throat. […] All subjects were given a standard lunch at noon, a standard dinner at 6:00 PM and a standard snack at 10:00 PM.
All subjects were given a standard lunch at noon, a standard dinner at 6:00 PM and a standard snack at 10:00 PM.
Non-compartmental modelling of the data was performed.

- Relative bioavailability Ratio PO/IV (Metabolite): 0.32
- Relative bioavailability Ratio SC/IV (Metabolite): 0.71
- time at which WR-1065 concentration fell below 5 μM (iv): approximately 45 minutes
- time at which WR-1065 concentration fell below 5 μM (sc): approximately 60 minutes
- peak levels (maximum whole blood concentration) (male, iv): about 23 μM
- time within which whole blood concentrations peaked and declined rapidly (male, iv): ≤ 10 min
- maximum blood levels (male, sc): ~4 µM
- time to maximum and sustained whole blood concentration (male, sc): 15 to 45 min
Compound: NCCCNCCS [WR-1065, S-2-(3-Aminopropyl Amino) ethanethiol]
